Assay results published in publication PMC11145269 (Proceedings of the National Academy of Sciences of the …, 2024).
Read-outs that look alike come from different tables or passages of the source.

How the values were obtained:
Assay in all cases: two-electrode voltage clamp, X. laevis oocytes
Type in all cases: cell-based
[1] = target: T1, NALCN WT channel complex (+UNC79, UNC80, and FAM155A) (Homo sapiens, UniProt Q8IZF0); conditions: inhibition of outward and inward currents, E/Z isomer mixture, buffer same
T1 construct: codon-optimised human cDNAs in modified pcDNA3.1(+); four mRNAs 1:1:1:1 co-injected in Xenopus laevis oocytes; 7SX3 is the human channelosome structure used for modelling; with Protein unc-79 homolog; Protein unc-80 homolog; NALCN channel auxiliary factor 1

[2] = target: T2, NALCN WT channel complex (+UNC79, UNC80, and FAM155A) (Homo sapiens, UniProt Q8IZF0, L588A/M1145A/W311A/Y1436A)
T2 construct: codon-optimised human cDNAs in modified pcDNA3.1(+); four mRNAs 1:1:1:1 co-injected in Xenopus laevis oocytes; 7SX3 is the human channelosome structure used for modelling; with Protein unc-79 homolog; Protein unc-80 homolog; NALCN channel auxiliary factor 1

[3] = target: T1, NALCN WT channel complex (+UNC79, UNC80, and FAM155A)
[4] = target: T1, NALCN WT channel complex (+UNC79, UNC80, and FAM155A); conditions: buffer same
[5] = target: T1, NALCN WT channel complex (+UNC79, UNC80, and FAM155A); conditions: buffer same; remark: listed apart in the source
[6] = target: T3, NALCN WT channel complex (+UNC79, UNC80, and FAM155A) (Homo sapiens, UniProt Q8IZF0, M1145A); conditions: read-out: % inhibition at 300 μM (-100 mV)
T3 construct: codon-optimised human cDNAs in modified pcDNA3.1(+); four mRNAs 1:1:1:1 co-injected in Xenopus laevis oocytes; 7SX3 is the human channelosome structure used for modelling; with Protein unc-79 homolog; Protein unc-80 homolog; NALCN channel auxiliary factor 1

[7] = read-out: % inhibition at 1 mM (-100 mV)
[8] = read-out: % inhibition at 1 mM (+80 mV)
[9] = outward inhibited more than inward current
[10] = outward current inhibited, inward potentiated

CCC(=C(c1ccc(O)cc1)c1ccc(OCCNC)cc1)c1ccccc1 (mixture of isomers) [(E/Z)-endoxifen]
% inhibition at 100 μM [1]: two (cetirizine and (E/Z)-endoxifen) inhibited both outward and inward currents

NCCOB(c1ccccc1)c1ccccc1 [2-APB, 2-aminoethoxydiphenyl borate]
inhibition at 1000 µM [2, 7]: 32.9 ± 12.9% | inhibition at 1000 µM [3, 7]: 70.2 ± 8.2%

COc1ccccc1CN[C@H]1C2CCN(CC2)[C@H]1C(c1ccccc1)c1ccccc1 [CP96345]
% inhibition at 300 μM ([4]; inhibition of outward current): two selectively inhibited the outward (CP96345) or inward (lamotrigine) currents

c1ccc(B(OB(c2ccccc2)c2ccccc2)c2ccccc2)cc1 [DPBA, diphenylborinic anhydride]
inhibition at 1000 µM [3, 8]: 66.9 ± 4%

CN(C)CCOC(c1ccccc1)c1ccccc1 [DPH, diphenhydramine]
inhibition at 1000 µM [3, 8]: 60.3 ± 4.3%

O=C(O)COCCN1CCN(C(c2ccccc2)c2ccc(Cl)cc2)CC1 (centres unmarked) [cetirizine]
% inhibition at 1 mM ([5]; inhibition of outward and inward currents): two (cetirizine and (E/Z)-endoxifen) inhibited both outward and inward currents

CN(C)CCCC1(c2ccc(F)cc2)OCc2cc(C#N)ccc21 (centres unmarked) [citalopram]
% inhibition at 1 mM [5, 9]: three (hydroxyzine, promethazine, and citalopram) had a stronger inhibitory effect on the outward

COc1ccc([C@@H]2Sc3ccccc3N(CCN(C)C)C(=O)[C@@H]2OC(C)=O)cc1 [diltiazem]
% inhibition at 300 μM [4, 10]: three inhibited the outward and potentiated the inward currents (quinidine, diltiazem, and propafenone)

CC(C)n1c(/C=C/C(O)CC(O)CC(=O)O)c(-c2ccc(F)cc2)c2ccccc21 (centres unmarked) [fluvastatin]
% inhibition at 1 mM ([5]; inhibition of inward current only): one (fluvastatin) had no effect on the outward current, but inhibited the inward current efficaciously

OCCOCCN1CCN(C(c2ccccc2)c2ccc(Cl)cc2)CC1 (centres unmarked) [hydroxyzine]
% inhibition at 1 mM [5, 9]: three (hydroxyzine, promethazine, and citalopram) had a stronger inhibitory effect on the outward

Nc1nnc(-c2cccc(Cl)c2Cl)c(N)n1 [lamotrigine]
% inhibition at 300 μM ([4]; inhibition of inward current): two selectively inhibited the outward (CP96345) or inward (lamotrigine) currents

O=C1NC(=O)C(c2ccccc2)(c2ccccc2)N1 [phenytoin]
inhibition at 300 µM ([2]; read-out: % inhibition at 300 μM (-100 mV)): 64.8 ± 6.7% | inhibition at 300 µM [6]: 31 ± 9.2%

CC(CN1c2ccccc2Sc2ccccc21)N(C)C (centres unmarked) [promethazine]
% inhibition at 1 mM [5, 9]: three (hydroxyzine, promethazine, and citalopram) had a stronger inhibitory effect on the outward

CCCNCC(O)COc1ccccc1C(=O)CCc1ccccc1 (centres unmarked) [propafenone]
% inhibition at 300 μM [4, 10]: three inhibited the outward and potentiated the inward currents (quinidine, diltiazem, and propafenone)

C=C[C@H]1CN2CC[C@H]1C[C@@H]2[C@@H](O)c1ccnc2ccc(OC)cc12 [quinidine]
% inhibition at 300 μM [4, 10]: three inhibited the outward and potentiated the inward currents (quinidine, diltiazem, and propafenone)
